Experimental findings from US12673954B2 (BRISTOL-MYERS SQUIBB COMPANY, priority 2021, dated 2026) are described below.

Assay [1] deals with NF-κB pathway, THP1-Dual™ cells. The assay can be described thus: STING reporter assay in THP1-Dual cells, NF-κB pathway (SEAP, QUANTI-Blue). Particulars: Homo sapiens, THP1-Dual, 20 h, THP1-Dual cells, 10% human plasma, 20 hours; SEAP; 100% activation = 100 μM cGAMP; read-out: NFkB (EC50 μM). Format: cell-based, human. The method in brief: (§1)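 Activation normalised between DMSO-only baseline and 100 μM cGAMP maximum, after 20 h compound exposure (starting at 100 μM final) at 37° C, 5% CO2. Supernatant SEAP (QUANTI-Blue, OD620) reports NF-κB; secreted luciferase (QUANTI-Luc, RLU at 5 min) reports IRF.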

Assay [2] deals with IRF pathway, THP1-Dual™ cells. Briefly: STING reporter assay in THP1-Dual cells, IRF pathway (Lucia luciferase, QUANTI-Luc). Format: cell-based, human. The settings on record: Homo sapiens, THP1-Dual, 20 h, THP1-Dual cells, 10% human plasma, 20 hours; Lucia luciferase; 100% activation = 100 μM cGAMP; read-out: IRF (EC50 μM). The gist of the method: as §1

`CC(C)OC(=O)c1ccc(F)c2cc(CNC(=O)c3cnn4cccnc34)oc12` [EXAMPLE 224, Isopropyl 4-fluoro-2-((pyrazolo[1,5-a]pyrimidine-3-carboxamido)methyl)benzofuran-7-carboxylate]: the EC50 worked out at 4 µM in assay [1] and 5.9 µM in assay [2].

On to `Cc1ccc(C(=O)OC(C)C(F)(F)F)c2oc(CNC(=O)c3cnn4cccnc34)cc12` (stereo not drawn) [EXAMPLE 225, 1,1,1-Trifluoropropan-2-yl 4-methyl-2-((pyrazolo[1,5-a]pyrimidine-3-carboxamido)methyl)benzofuran-7-carboxylate], for which the EC50 in assay [1] and in assay [2] was 7.5 µM in each case.

As for `O=C(OCC(F)(F)F)c1cc(F)c(F)c2cc(CNC(=O)c3cnn4cccnc34)oc12` [EXAMPLE 226], the results for the EC50 in assay [1] and in assay [2] were 1.3 µM and 1.4 µM, respectively.

With `CC(OC(=O)c1cc(F)c(F)c2cc(CNC(=O)c3cnn4cccnc34)oc12)C(F)(F)F` (stereo not drawn) [EXAMPLE 227, 1,1,1-Trifluoropropan-2-yl 4,5-difluoro-2-((pyrazolo[1,5-a]pyrimidine-3-carboxamido)methyl)benzofuran-7-carboxylate], the results for the 50% effective concentration (EC50) in assay [1] and in assay [2] were 4.2 µM and 3.8 µM, respectively.

For the molecule `O=C(OCC(F)(F)F)c1cc(F)cc2cc(CN3CCc4ccncc4C3=O)oc12` [EXAMPLE 228, 2,2,2-Trifluoroethyl 5-fluoro-2-((1-oxo-3,4-dihydro-2,7-naphthyridin-2(1H)-yl)methyl)benzofuran-7-carboxylate], the EC50 came out at 6.5 µM in assay [1] and 6.1 µM in assay [2].

In the case of `O=C(NCc1cc2cc(F)cc(C(=O)OCC(F)(F)F)c2o1)c1cnccn1` [EXAMPLE 229, 2,2,2-Trifluoroethyl 5-fluoro-2-((pyrazine-2-carboxamido)methyl)benzofuran-7-carboxylate], the EC50 in assay [1] and in assay [2] was 4.2 µM each time.

As for `O=C(OCC(F)(F)F)c1cc(F)cc2cc(CNC(=O)c3cnc4cccnn34)oc12` [EXAMPLE 230, 2,2,2-Trifluoroethyl 5-fluoro-2-((imidazo[1,2-b]pyridazine-3-carboxamido)methyl)benzofuran-7-carboxylate], the concentration giving a half-maximal response (EC50) stood at 0.95 µM in assay [1] and 0.93 µM in assay [2].

Consider `O=C(OCC(F)(F)F)c1cc(F)cc2cc(CNC(=O)c3cnn4cccnc34)oc12` [EXAMPLE 231, 2,2,2-Trifluoroethyl 5-fluoro-2-((pyrazolo[1,5-a]pyrimidine-3-carboxamido)methyl)benzofuran-7-carboxylate], for which the half-maximal effective concentration (EC50) in assay [1] was 0.65 µM; in assay [2] it was 0.5 µM.

For the molecule `CC(C)OC(=O)c1cc(F)cc2cc(CNC(=O)c3cnn4cccnc34)oc12` [EXAMPLE 232, Isopropyl 5-fluoro-2-((pyrazolo[1,5-a]pyrimidine-3-carboxamido)methyl)benzofuran-7-carboxylate], the 50% effective concentration (EC50) in assay [1] stood at 0.92 µM; in assay [2], 1 µM.

On to `O=C(OC1COC1)c1cc(F)cc2cc(CNC(=O)c3cnn4cccnc34)oc12` [EXAMPLE 233, Oxetan-3-yl 5-fluoro-2-((pyrazolo[1,5-a]pyrimidine-3-carboxamido)methyl)benzofuran-7-carboxylate], for which the EC50 was 2 µM in assay [1] and 1.7 µM in assay [2].

`O=C(OC1CCC1)c1cc(F)cc2cc(CNC(=O)c3cnn4cccnc34)oc12` [EXAMPLE 234, Cyclobutyl 5-fluoro-2-((pyrazolo[1,5-a]pyrimidine-3-carboxamido)methyl)benzofuran-7-carboxylate]: the EC50 in assay [1] and in assay [2] was 1.1 µM throughout.

For `O=C(OCC(F)F)c1cc(F)cc2cc(CNC(=O)c3cnn4cccnc34)oc12` [EXAMPLE 235, 2,2-Difluoroethyl 5-fluoro-2-((pyrazolo[1,5-a]pyrimidine-3-carboxamido)methyl)benzofuran-7-carboxylate], the EC50 in assay [1] came out at 0.68 µM; in assay [2] it was 0.69 µM.
